43 compounds from patent US5541183A, “Ginkgolide derivatives” (priority 1993, dated 1996) can be followed below.

The subject of the first experiment is PAF-induced rabbit platelet aggregation. In words: PAF-induced rabbit platelet aggregation. Type of experiment: cell-based, rabbit (New Zealand white). The note with it: Oryctolagus cuniculus, rabbit PRP, PAF 5×10^-9 M, read-out: IC50, inhibition of PAF-induced rabbit platelet aggregation. The method, then:
Pharmacology Example 1: PAF-induced rabbit platelet aggregation
Blood was collected from the ear artery of a male New Zealand white rabbit and mixed with 3.8% sodium citrate in a 9:1 volume ratio. Platelet rich plasma (PRP) was obtained by centrifugation of the blood at 150 g for 10 min at room temperature. The number of platelets was adjusted to 3×10^8 platelets/ml with platelet poor plasma. Platelet aggregation was monitored by continuous recording of light transmission in a dual-channel aggregometer (Chrono-Log 560-VS) coupled with a two channel recorder (Chrono-Log 707). Stirred PRP was treated with various concentrations of the test compounds or vehicle (0.5% DMSO) for 2 min and then PAF(5×10^-9 M) was added to induce platelet aggregation.
Inhibition values were calculated by comparing the extent of aggregation obtained in the presence of the vehicle alone (0.5% DMSO) and in the presence of a test compound. Log concentration-response curves were generated and the IC50 values were determined by regression analysis.
Table 1 lists results from this assay for inhibition of PAF-induced rabbit platelet aggregation for illustrative examples of the compounds of this invention.
With `CC1C(=O)OC2C(O)C34C5CC(C(C)(C)C)C36C(OC(=O)C6OCc3ccccc3)OC4(C(=O)O5)C12O` (stereo not shown) [Example 1, 10-benzyloxy-Ginkgolide B], the IC50 (in general, the concentration at which inhibition is half-maximal) was determined as 0.0688 µM. The same measure, in the same setting: with `CC1C(=O)OC2C(O)C34C5CC(C(C)(C)C)C36C(OC(=O)C6OCc3ccc(Cl)cc3Cl)OC4(C(=O)O5)C12O` (stereo not shown) [Example 2, 10-(2',4'-dichlorobenzyloxy)-Ginkgolide B] the figure was 0.0721 µM. On to `CC1C(=O)OC2C(O)C34C5CC(C(C)(C)C)C36C(OC(=O)C6OCc3ccc(Cl)cc3)OC4(C(=O)O5)C12O` (stereo not shown) [Example 3, 10-(4'-chlorobenzyloxy)-Ginkgolide B], for which the IC50 turned out to be 0.0947 µM.

Turning to `CC1C(=O)OC2C(O)C34C5CC(C(C)(C)C)C36C(OC(=O)C6OCc3ccc(Cl)c(Cl)c3)OC4(C(=O)O5)C12O` (stereo not shown) [Example 11], the IC50 was found to be 0.101 µM.

For the compound `COc1ccc(COC2C(=O)OC3OC45C(=O)OC6CC(C(C)(C)C)C32C64C(O)C2OC(=O)C(C)C25O)cc1` (stereo not shown) [Example 14, 10-(4'-methoxybenzyloxy)-Ginkgolide B], the 50% inhibitory concentration (IC50) came to 0.0858 µM. Still for that read-out and setting: in the case of `COc1cc(COC2C(=O)OC3OC45C(=O)OC6CC(C(C)(C)C)C32C64C(O)C2OC(=O)C(C)C25O)cc(OC)c1OC` (stereo not shown) [Example 15, 10-(3',4',5'-trimethoxybenzyloxy)-Ginkgolide B] it was 0.0621 µM; in that of `CC1C(=O)OC2C(O)C34C5CC(C(C)(C)C)C36C(OC(=O)C6OCc3ccc(O)cc3)OC4(C(=O)O5)C12O` (stereo not shown) [Example 25], 0.0571 µM. The same measure, in the same setting: with `Cc1cc(COC2C(=O)OC3OC45C(=O)OC6CC(C(C)(C)C)C32C64C(O)C2OC(=O)C(C)C25O)cc(C)c1O` (stereo not shown) [Example 27] the figure was 0.0621 µM; with `COc1cc(COC2C(=O)OC3OC45C(=O)OC6CC(C(C)(C)C)C32C64C(O)C2OC(=O)C(C)C25O)ccc1O` (stereo not shown) [Example 28], 0.0371 µM. For the compound `CC1C(=O)OC2C(O)C34C5CC(C(C)(C)C)C36C(OC(=O)C6OCc3cc(C(C)(C)C)c(O)c(C(C)(C)C)c3)OC4(C(=O)O5)C12O` (stereo not shown) [Example 31], the IC50 is 0.0781 µM. The same measure, in the same setting: in the case of `COc1cc(COC2C(=O)OC3OC45C(=O)OC6CC(C(C)(C)C)C32C64C(O)C2OC(=O)C(C)C25O)cc(OC)c1O` (stereo not shown) [Example 32] it was 0.0651 µM; in that of `Cc1cc(COC2C(=O)OC3OC45C(=O)OC6CC(C(C)(C)C)C32C64C(O)C2OC(=O)C(C)C25O)cc(N)c1O` (stereo not shown) [Example 35], 0.101 µM.

Consider `Cc1ccccc1COC1C(=O)OC2OC34C(=O)OC5CC(C(C)(C)C)C21C53C(O)C1OC(=O)C(C)C14O` (stereo not shown) [Example 41, 10-(2'-methylbenzyloxy)-Ginkgolide B], for which the IC50 amounted to 0.0741 µM. Still for that read-out and setting: in the case of `Cc1ccccc1COC1C(=O)OC2OC34C(=O)OC5CC(C(C)(C)C)C21C53C(OCc1ccccc1C)C1OC(=O)C(C)C14O` (stereo not shown) [Example 42, 1,10-bis(2'-methylbenzyloxy)-Ginkgolide B] it was 0.0443 µM.

For `Cc1ccc(COC2C(=O)OC3OC45C(=O)OC6CC(C(C)(C)C)C32C64C(O)C2OC(=O)C(C)C25O)cc1` (stereo not shown) [Example 43, 10-(4'-methylbenzyloxy)-Ginkgolide B], the IC50 was 0.0467 µM. Take `CC1C(=O)OC2C(O)C34C5CC(C(C)(C)C)C36C(OC(=O)C6OCCCOc3ccccc3)OC4(C(=O)O5)C12O` (stereo not shown) [Example 78, 10-(3'-phenoxypropoxy)-Ginkgolide B]: the 50% inhibitory concentration (IC50) worked out at 0.159 µM. `CC1C(=O)OC2C(O)C34C5CC(C(C)(C)C)C36C(OC(=O)C6OCCc3ccccc3)OC4(C(=O)O5)C12O` (stereo not shown) [Example 79, 10-(2'-phenylethoxy)-Ginkgolide B]: the concentration for half-maximal inhibition (IC50) was 0.117 µM. For `COc1cc(C(=O)OC2C(=O)OC3OC45C(=O)OC6CC(C(C)(C)C)C32C64C(O)C2OC(=O)C(C)C25O)cc(OC)c1OC` (stereo not shown) [Example 80, 10-(3',4'.5'-trimethoxybenzoyloxy)-Ginkgolide B], the IC50 was 0.114 µM. Same read-out and setting: with `CC1C(=O)OC2C(O)C34C5CC(C(C)(C)C)C36C(OC(=O)C6OCc3ccc(-c6ccccc6)cc3)OC4(C(=O)O5)C12O` (stereo not shown) [Example 81, 10-(4'-phenylbenzyloxy)-Ginkgolide B] the figure was 0.0521 µM; with `CC1C(=O)OC2C(O)C34C5CC(C(C)(C)C)C36C(OC(=O)C6OCc3cccc(F)c3)OC4(C(=O)O5)C12O` (stereo not shown) [Example 84, 10-(3'-fluorobenzyloxy)-Ginkgolide B], 0.068 µM.

As for `CC1C(=O)OC2C(O)C34C5CC(C(C)(C)C)C36C(OC(=O)C6OCc3ccc(F)cc3)OC4(C(=O)O5)C12O` (stereo not shown) [Example 85, 10-(4'-fluorobenzyloxy)-Ginkgolide B], the IC50 was found to be 0.0321 µM. The same measure, in the same setting: with `CC1C(=O)OC2C(OC(=O)c3ccccc3)C34C5CC(C(C)(C)C)C36C(OC(=O)C6O)OC4(C(=O)O5)C12O` (stereo not shown) [Example 89, 1-benzoyloxy-Ginkgolide B] the figure was 0.0621 µM. As for `CC1C(=O)OC2C(O)C34C5CC(C(C)(C)C)C36C(OC(=O)C6OS(=O)(=O)c3ccccc3)OC4(C(=O)O5)C12O` (stereo not shown) [Example 90, 10-benzenesulfonyloxy-Ginkgolide B], the IC50 came out at 0.0821 µM.

As to `COc1cccc(COC2C(=O)OC3OC45C(=O)OC6CC(C(C)(C)C)C32C64C(O)C2OC(=O)C(C)C25O)c1` (stereo not shown) [Example 91, 10-(3'-methoxybenzyloxy)-Ginkgolide B], the IC50 was determined as 0.0931 µM. Still for that read-out and setting: with `CC1C(=O)OC2C(OCc3ccc(Cl)cc3Cl)C34C5CC(C(C)(C)C)C36C(OC(=O)C6OCc3ccc(Cl)cc3Cl)OC4(C(=O)O5)C12O` (stereo not shown) [Example 92, 1,10-bis(2',4'-dichlorobenzyloxy)-Ginkgolide B] the figure was 0.102 µM; with `CC1C(=O)OC2C(O)C34C5CC(C(C)(C)C)C36C(OC(=O)C6OCc3cccc(C(F)(F)F)c3)OC4(C(=O)O5)C12O` (stereo not shown) [Example 93, 10-(3'-trifiuoromethylbenzyloxy)-Ginkgolide B], 0.0731 µM; with `CC1C(=O)OC2C(O)C34C5CC(C(C)(C)C)C36C(OC(=O)C6OCc3ccc(C(F)(F)F)cc3)OC4(C(=O)O5)C12O` (stereo not shown) [Example 94, 10-(4'-trifluoromethylbenzyloxy)-Ginkgolide B], 0.121 µM.

For `CC1C(=O)OC2C(OCc3ccc(C(F)(F)F)cc3)C34C5CC(C(C)(C)C)C36C(OC(=O)C6OCc3ccc(C(F)(F)F)cc3)OC4(C(=O)O5)C12O` (stereo not shown) [Example 95], the IC50 is 0.0871 µM. The same measure, in the same setting: in the case of `Cc1cnc(COC2C(=O)OC3OC45C(=O)OC6CC(C(C)(C)C)C32C64C(O)C2OC(=O)C(C)C25O)c(C)c1[N+](=O)[O-]` (stereo not shown) [Example 98, 10-(3,5-dimethyl-4-nitro-2-pyridinyl)-methoxy-Ginkgolide B] it was 0.131 µM; in that of `CCCCc1ccc(COC2C(=O)OC3OC45C(=O)OC6CC(C(C)(C)C)C32C64C(O)C2OC(=O)C(C)C25O)nc1` (stereo not shown) [Example 100, 10-(5-butyl-2-pyridinyl)-methoxy-Ginkgolide B], 0.0521 µM. The same measure, in the same setting: in the case of `CC1C(=O)OC2C(O)C34C5CC(C(C)(C)C)C36C(OC(=O)C6OCc3ccc6ccccc6n3)OC4(C(=O)O5)C12O` (stereo not shown) [Example 102, 10-(2-quinolinyl)-methoxy-Ginkgolide B] it was 0.131 µM; in that of `Cc1cnc(COC2C(=O)OC3OC45C(=O)OC6CC(C(C)(C)C)C32C64C(O)C2OC(=O)C(C)C25O)c(C)c1NO` (stereo not shown) [Example 104, 10-(3,5-dimethyl-4-hydroxyamino-2-pyridinyl)-methoxy-Ginkgolide B], 0.11 µM.

The experiment is the same for the next values; noted with them: Oryctolagus cuniculus, read-out: IC50, inhibition of PAF-induced rabbit platelet aggregation.
`CC1C(=O)OC2C(O)C34C5CC(C(C)(C)C)C36C(OC(=O)C6OCc3ccc(I)cc3)OC4(C(=O)O5)C12O` (stereo not shown) [Example 5]: the 50% inhibitory concentration (IC50) turned out to be 0.0501 µM. Still for that read-out and setting: with `CC1C(=O)OC2C(O)C34C5CC(C(C)(C)C)C36C(OC(=O)C6OCc3ccc(OC(F)(F)F)cc3)OC4(C(=O)O5)C12O` (stereo not shown) [Example 24] the figure was 0.0421 µM; with `CC1C(=O)OC2C(O)C34C5CC(C(C)(C)C)C36C(OC(=O)C6OCc3ccc(O)c(O)c3)OC4(C(=O)O5)C12O` (stereo not shown) [Example 30], 0.121 µM; with `CC1C(=O)OC2C(O)C34C5CC(C(C)(C)C)C36C(OC(=O)C6OCc3ccc([N+](=O)[O-])cc3)OC4(C(=O)O5)C12O` (stereo not shown) [Example 44], 0.0831 µM. Still for that read-out and setting: with `CC1C(=O)OC2C(O)C34C5CC(C(C)(C)C)C36C(OC(=O)C6OCc3cccc([N+](=O)[O-])c3)OC4(C(=O)O5)C12O` (stereo not shown) [Example 63] the figure was 0.0627 µM; with `CC1C(=O)OC2C(O)C34C5CC(C(C)(C)C)C36C(OC(=O)C6OCc3ccc(N)cc3)OC4(C(=O)O5)C12O` (stereo not shown) [Example 75], 0.116 µM.

As to `CC1C(=O)OC2C(O)C34C5CC(C(C)(C)C)C36C(OC(=O)C6OCc3c(F)c(F)c(F)c(F)c3F)OC4(C(=O)O5)C12O` (stereo not shown) [Example 83, 10-(2',3',4',5',6'-pentafluorobenzyloxy)-Ginkgolide B], the half-maximal inhibitory concentration (IC50) is 0.0717 µM. Regarding `CC1C(=O)OC2C(O)C34C5CC(C(C)(C)C)C36C(OC(=O)C6OCc3ccc(F)cc3F)OC4(C(=O)O5)C12O` (stereo not shown) [Example 86, 10-(2',4'-difluorobenzyloxy)-Ginkgolide B], the 50% inhibitory concentration (IC50) amounted to 0.0501 µM.

On to `CC1C(=O)OC2C(O)C34C5CC(C(C)(C)C)C36C(OC(=O)C6OCc3ccccc3F)OC4(C(=O)O5)C12O` (stereo not shown) [Example 87, 10-(2'-fluorobenzyloxy)-Ginkgolide B], for which the IC50 was determined as 0.107 µM. For `CC1C(=O)OC2C(O)C34C5CC(C(C)(C)C)C36C(OC(=O)C6OC(=O)c3ccccc3)OC4(C(=O)O5)C12O` (stereo not shown) [Example 88, 10-benzoyloxy-Ginkgolide B], the IC50 was determined as 0.0482 µM.

As for `CC1C(=O)OC2C(O)C34C5CC(C(C)(C)C)C36C(OC(=O)C6OCCc3ccccn3)OC4(C(=O)O5)C12O` (stereo not shown) [Example 101, 10-(2-pyridinyl)-ethoxy-Ginkgolide B], the IC50 worked out at 0.102 µM.
